These results are taken from ChEMBL document CHEMBL5150011, “Selection of QPX7831, an Orally Bioavailable Prodrug of Boronic Acid β-Lactamase Inhibitor QPX7728” (J Med Chem, 2021).

Data set [1] is described as follows: Half life in human liver microsomes measured upto 30 min in presence of NADPH by HPLC analysis. Type of data set: ADME, Microsome. (In general: Liver microsomes are vesicles of endoplasmic reticulum, rich in cytochrome P450 enzymes.)
Data set [2] can be described thus: Half life in human serum measured upto 30 min by HPLC analysis. It is filed as ADME, cell-free.
The nature of data set [3]: Solubility of compound in water at pH 7.2 using crystalline sample. Type of data set: physicochemical.
Data set [4] is described as follows: Solubility of the compound in FeSSIF using crystalline sample. Type of data set: physicochemical.
The nature of data set [5]: Solubility of compound in water in presence of 0.5 M PBS at pH 7.0 using crystalline sample. Type of data set: physicochemical. Particulars: water with 0.5 M PBS.
A short description of data set [6]: Lipophilicity, logD of compound at pH 7.4. It is filed as physicochemical. The note with it: buffer.
A short description of data set [7]: Solubility of the compound in FaSSIF using crystalline sample. It is filed as physicochemical.
Data set [8] in a line: Acid dissociation constant, pKa of the compound. It is filed as physicochemical.
A short description of data set [9]: Oral bioavailability in monkey at 20 mg/kg by LC/MS/MS analysis. It is filed as ADME, organism-based, Macaca mulatta. Particulars: rhesus monkey, in vivo.
Data set [10] in a line: Oral bioavailability in dog at 10 mg/kg by LC/MS/MS analysis. It is filed as ADME, organism-based, Canis lupus familiaris. Particulars: in vivo.
Data set [11] can be described thus: Half life in rat liver microsomes measured upto 30 min in presence of NADPH by HPLC analysis. It is filed as ADME, Microsome.
Data set [12] in a line: Half life in monkey liver microsomes measured upto 30 min in presence of NADPH by HPLC analysis. It is filed as ADME, Macaca mulatta, Microsome. The note with it: rhesus monkey.
The nature of data set [13]: Half life in dog liver microsomes measured upto 30 min in presence of NADPH by HPLC analysis. Type of data set: ADME, Canis lupus familiaris, Microsome.
A short description of data set [14]: Oral bioavailability in rat at 30 mg/kg by LC/MS/MS analysis. It is filed as ADME, organism-based. Particulars: in vivo.
Data set [15] in a line: Oral bioavailability in dog. It is filed as ADME, organism-based, Canis lupus familiaris. Particulars: in vivo.
The nature of data set [16]: Oral bioavailability in monkey. Type of data set: ADME, organism-based, Macaca mulatta. Particulars: rhesus monkey, in vivo.
A short description of data set [17]: Oral bioavailability in rat. It is filed as ADME, organism-based. Particulars: in vivo.

Turning to `O=C(OCOC(=O)c1c(F)ccc2c1OB(O)[C@@H]1C[C@H]21)OC1CCOCC1`, the half-life in data set [1] and in data set [2] was above 30 min each time.

Turning to `COCCOC(=O)OCOC(=O)c1c(F)ccc2c1OB(O)[C@@H]1C[C@H]21`, the half-life in data set [1] was above 30 min; in data set [2] it was above 60 min.

`Cc1oc(=O)oc1COC(=O)c1c(F)ccc2c1OB(O)[C@@H]1C[C@H]21`: the half-life in data set [1] was above 30 min; in [2] it was 3.7 min.

As to `CC(C)C(=O)OCOC(=O)c1c(F)ccc2c1O[B-](O)(O)[C@@H]1C[C@H]21.[Na+]`, the solubility in [3] is above 100 mg/mL. Also, the thermodynamic solubility is above 100 mg/mL in [4], 10.6 mg/mL in [5] and above 100 mg/mL in [7]. Moreover, the logD in [6] is 0.33. This molecule also came in with a pKa in data set [8] of 4.8.

Take `O=C(OCOC(=O)c1c(F)ccc2c1OB(O)[C@@H]1C[C@H]21)OC1CCCCC1`: the half-life in [1] is 27 min; in data set [2], above 60 min.

Regarding `CCOC(=O)OCOC(=O)c1c(F)ccc2c1OB(O)[C@@H]1C[C@H]21`, the values for the half-life in data set [1] and in [2] were above 30 min and above 60 min, respectively.

With `CC(=O)N1CCC[C@@H]1C(=O)OCOC(=O)c1c(F)ccc2c1OB(O)[C@@H]1C[C@H]21`, the half-life in [1] and in [2] was above 30 min each time.

On to `O=C(OCOC(=O)c1c(F)ccc2c1OB(O)[C@@H]1C[C@H]21)OC1COC1`, for which the half-life in data set [1] is above 30 min; in data set [2], 11 min.

`CC(=O)OCCOC(=O)OCOC(=O)c1c(F)ccc2c1OB(O)[C@@H]1C[C@H]21`: the values for the half-life in [1] and in [2] were 24 min and above 30 min, respectively.

On to `O=C(OCOC(=O)C1CCOCC1)c1c(F)ccc2c1OB(O)[C@@H]1C[C@H]21`, for which the half-life in [1] came to 23 min; in data set [2], 26 min.

Take `O=C(OCOC(=O)C1COC1)c1c(F)ccc2c1OB(O)[C@@H]1C[C@H]21`: the half-life in data set [2] worked out at 3.9 min.

On to `O=C(OCOC(=O)C1CC1)c1c(F)ccc2c1OB(O)[C@@H]1C[C@H]21`, for which the half-life is 14.3 min in data set [1] and above 60 min in data set [2].

On to `CC(C)OC(=O)OCOC(=O)c1c(F)ccc2c1OB(O)[C@@H]1C[C@H]21`, for which, in data set [1], the half-life was above 30 min.

Regarding `CC(=O)OCOC(=O)c1c(F)ccc2c1OB(O)[C@@H]1C[C@H]21`, the bioavailability stood at 103% in data set [9], 50.1% in data set [10] and 131% in [14]. Besides, the half-life in [11] is 3 min; in [1] it was 8 min; in data set [12] it was 3 min; in [13] it was 15 min; in data set [2] it was above 30 min.

Turning to `CCCC(=O)OCOC(=O)c1c(F)ccc2c1OB(O)[C@@H]1C[C@H]21`, the bioavailability in data set [9] turned out to be 104%; in data set [10], 55.6%; in data set [14], 145%. Moreover, the half-life in data set [11] was 3 min; in [1], 28 min; in data set [12], 2 min; in [13] it was 11 min; in [2], above 60 min.

Regarding `CC(C)C(=O)OCOC(=O)c1c(F)ccc2c1OB(O)[C@@H]1C[C@H]21`, the bioavailability in data set [9] was 106%; in [10], 65%; in data set [14] it was 125%. Also, the half-life was 5 min in data set [11]; 9 min in data set [1]; 2 min in data set [12]; 23 min in data set [13]; above 60 min in data set [2].

For `CN(C)C(=O)COC(=O)c1c(F)ccc2c1OB(O)[C@@H]1C[C@H]21`, the half-life is above 30 min in data set [1] and above 60 min in [2].

Regarding `CN(C)C(=O)COC(=O)OCOC(=O)c1c(F)ccc2c1OB(O)[C@@H]1C[C@H]21`, the half-life in data set [1] is above 30 min; in data set [2], above 60 min.

As for `O=C(O)c1c(F)ccc2c1OB(O)[C@@H]1C[C@H]21` [XERUBORBACTAM], the bioavailability in data set [15] turned out to be 50%; in [16], 20%; in data set [17], 50%.

What is called half-life is the time in which the quantity being followed falls by half. The term solubility denotes how much of the substance goes into solution per volume. Usually thermodynamic solubility stands for the concentration in solution at equilibrium with solid. By logD is commonly meant lipophilicity at a set pH, counting ionised and neutral species. The pKa is the pH at which an ionisable group is half protonated.
